Data on 1 molecule can be found in patent publication EP4643861A1, “A HALOGENATED-HETEROARYL KINASE INHBITOR FOR TREATING SOFT TISSUE SARCOMA AND VASCULAR TUMORS” (iOmx Therapeutics AG, priority 2024, dated 2025).

For data set [1], the system named is Human Patient-Derived Xenograft (PDX) Angiosarcoma. The experiment in a line: E9 monotherapy efficacy in Human Patient-Derived Xenograft (PDX) Angiosarcoma model. The following applies: BID × 23, termination at day 23. Format: in vivo, immuno-deficient NOD scid gamma (NOG) mice. An excerpt: This Angiosarcoma PDX model was used for preclinical evaluation of E9 in Angiosarcoma due to the retention of tumor heterogeneity and biological characteristics. Additionally, due to the rare indication, no murine syngeneic or human xenograft models are available.
Briefly, immuno-deficient NOD scid gamma (NOG) mice, were housed in a controlled environment conducive to tumor growth. Human PDX tumor samples, obtained from a patient with Angiosarcoma (Epitheloid AS […]), were implanted subcutaneously into the mice. Tumor growth was monitored using non-invasive caliper method and was calculated by the following formula: volume = (width)2 × (length)/2. Animals were randomized into treatment groups at a tumor volume (TV) of ~160mm3 (Table 1). Treatment started after randomization twice daily until termination at day 23 when Vehicle animals reached termination criteria due to TV. Table 1: Example treatment groups.

For data set [2], the system named is secondary radiation-induced cutaneous angiosarcoma. The data set can be described thus: Treatment of a secondary angiosarcoma in a patient (dose escalation study). Format: in vivo, human. How it is done:
Clinical responder patient suffered from a secondary radiation-induced cutaneous angiosarcoma. The patient, who previously received radiotherapy in context of a treatment of breast cancer, developed secondary angiosarcoma. The angiosarcoma was treated with chemotherapy including paclitaxel, doxorubicin and cyclophosphamide the patient developed treatment resistance to the chemotherapy. In the following the patient received E9 in context of a dose excalation study in which E9 was administered orally every 12h (i.e. twice daily) for 28 days per treatment cycle. E9 daily doses were escalated from 10mg to 30mg and finally 60mg E9 during the then following continuous treatment.

`Cc1nc(Nc2ncc(C(=O)Nc3c(CF)csc3Cl)s2)cc(N2CCN(C)CC2)n1` [E9, N-(2-chloro-4-(fluoromethyl)thiophen-3-yl)-2-((2-methyl-6-(4-methylpiperazin-1-yl)pyrimidin-4-yl)amino)thiazole-5-carboxamide]: in data set [1] (25mg/kg E9, p.o.), the “tumor growth inhibition (TGI)” value worked out at 55%. Moreover, the “tumor size at termination compared to treatment start” value in data set [1] (50 mg/kg E9, p.o.) is given as “tumor regression”. In data set [2] (further treatment with 60mg daily E9), the “duration of maintained near-complete response” value is listed as “over 10 months”. The tolerability entry in data set [2] (orally every 12h, 28 days per cycle, daily doses escalated from 10mg to 30mg and finally 60mg) was “well tolerated”. In data set [2] (patient resistant to paclitaxel, doxorubicin and cyclophosphamide, E9 orally twice daily), the “clinical response (reduction of cutaneous lesions)” value was “near-complete response”.
